Measured values from patent publication US10662203B2, “Pyrido[2,3-b]indole compounds for the treatment and prophylaxis of bacterial infection” (Hoffmann-La Roche Inc., priority 2017, dated 2020).
Converted amounts (≈) assume the structure as drawn.

How the values were obtained:
A. baumannii (ATCC17978) = test: 50% growth inhibitory concentration (IC50) determination assay; format: cell-based; settings: Iso-Sensitest broth, 0.098 = detection limit
How it was run: (§1)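 Compounds were two-fold serially diluted from 50 to 0.097 μM final in Iso-Sensitest broth, inoculated to ~5×10^5 CFU/mL and incubated at 35±2° C. Growth was followed by OD at 600 nm every 20 minutes for 16 h.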

[1] = test system: K. pneumoniae (ATCC10031); test: as above; format: cell-based; settings: Klebsiella pneumoniae, Iso-Sensitest broth, 0.098 = detection limit
How it was run: as §1

S. aureus (ATCC29213) = test: as above; format: cell-based; settings: Staphylococcus aureus, Iso-Sensitest broth, 0.098 = detection limit
How it was run: as §1

[2] = Lyophilisation solubility assay (LYSA); format: physicochemical; settings: 0.05 M phosphate buffer, HPLC-UV; for solubility thermodynamic: phosphate buffer, pH 6.5, aqueous buffer, thermodynamic from solid
Description: Lyophilisation Solubility Assay (LYSA):
The solubility of compounds of present invention was assessed by LYSA assay. Samples were prepared in duplicate from 10 mM DMSO stock solutions (20 μL) diluted in 30 μL pure DMSO. After evaporation of DMSO with a centrifugal vacuum evaporator, the residue was dissolved in 0.05 M phosphate buffer (150 μL, pH 6.5), which was stirred for one hour and shook for two hours. After one night, the solution was filtered using a microtiter filter plate. Then the filtrate and its 1/10 dilution were analyzed by HPLC-UV.

[3] = Acinetobacter baumannii, ATCC17978, A. baumannii ATCC17978

| SMILES | IC50 (A. baumannii (ATCC17978); [3]) [µM] | IC50 [1] [µM] | IC50 (S. aureus (ATCC29213)) [µM] | solubility thermodynamic [2] [µg/mL] | IC50 (A. baumannii (ATCC17978); A. baumannii ATCC17978) [µM] | Lysa ([2]; pH 6.5) [µg/mL] |
| --- | --- | --- | --- | --- | --- | --- |
| CNc1cc(F)c(F)c2c1[nH]c1ncc(-c3cnc4c(c3)c(=O)c(C(=O)O)cn4COC)c(N3CC[C@H]4CN(C)C[C@H]43)c12 (relative stereo) [Example 5.06, 6-[4-[cis-5-methyl-2,3,3a,4,6,6a-hexahydropyrrolo[2,3-c]pyrrol-1-yl]-5,6-difluoro-8-(methylamino)-9H-pyrido[2,3-b]indol-3-yl]-1-(methoxymethyl)-4-oxo-1,8-naphthyridine-3-carboxylic acid] | 0.295 | < 0.098 | < 0.098 | 366 (≈ 621 µM) |  |  |
| CCN1CCCC1Cn1cc(C(=O)O)c(=O)c2cc(-c3cnc4[nH]c5c(NC)cc(F)c(F)c5c4c3N(C)C)cnc21 (stereo not shown) [Example 1.04] | 0.935 | 0.101 | < 0.098 | 32 (≈ 55.6 µM) |  |  |
| CNc1cc(F)c(F)c2c1[nH]c1ncc(-c3cnc4c(c3)c(=O)c(C(=O)O)cn4C)c(N3CC4C(CN(C)C)CO[C@@H]4C3)c12 (stereo partly shown) [Example 1.88] | 0.289 | < 0.098 | < 0.098 | 485 (≈ 803 µM) |  |  |
| CNc1cc(F)cc2c1[nH]c1ncc(-c3cnc4c(c3)c(=O)c(C(=O)O)cn4NC)c(N3CCC(F)(CN(C)C)C3)c12 (stereo not shown) [Example 1.92] | 0.14 | < 0.098 | < 0.098 | 88 (≈ 153 µM) |  |  |
| CNc1cc(F)c(F)c2c1[nH]c1ncc(-c3cnc4c(c3)c(=O)c(C(=O)O)cn4NC)c(N3CCC(F)(CN(C)C)C3)c12 (stereo not shown) [Example 1.93] | 0.094 | < 0.098 | < 0.098 | 105 (≈ 177 µM) |  |  |
| CNc1cc(F)c(F)c2c1[nH]c1ncc(-c3cnc4c(c3)c(=O)c(C(=O)O)cn4C)c(N3CC[C@H]4CN(CCOC)CC43)c12 (stereo partly shown) [Example 1.96] | 0.269 | < 0.098 | < 0.098 | 169 (≈ 280 µM) |  |  |
| CNc1cc(F)c(F)c2c1[nH]c1ncc(-c3cnc4c(c3)c(=O)c(C(=O)O)cn4C)c(N3CCC(O)(CN(C)C)C3)c12 (stereo not shown) [Example 1.100] | 0.9 | < 0.098 | 0.272 | 632 (≈ 1090 µM) |  |  |
| CNc1cc(F)c(F)c2c1[nH]c1ncc(-c3cnc4c(c3)c(=O)c(C(=O)O)cn4C)c(N3CCC(C)(CN(C)C)C3)c12 (stereo not shown) [Example 1.101] | 0.15 | < 0.098 | < 0.098 | 214 (≈ 372 µM) |  |  |
| CNc1cc(F)cc2c1[nH]c1ncc(-c3cnc4c(c3)c(=O)c(C(=O)O)cn4C)c(N3CC4[C@H](CCCN4C)C3)c12 (stereo partly shown) [Example 1.110] | 0.074 | < 0.098 | < 0.098 | 71 (≈ 128 µM) |  |  |
| CNc1cc(F)cc2c1[nH]c1ncc(-c3cnc4c(c3)c(=O)c(C(=O)O)cn4NC)c(N3CC4[C@H](CCCN4C)C3)c12 (stereo partly shown) [Example 1.111] | 0.115 | < 0.098 | < 0.098 | 112 (≈ 196 µM) |  |  |
| CNc1cc(F)c(F)c2c1[nH]c1ncc(-c3cnc4c(c3)c(=O)c(C(=O)O)cn4C)c(N3CCC4(F)CN(C)CC34)c12 (stereo not shown) [Example 1.120] | 0.169 | < 0.098 | < 0.098 | 37 (≈ 64.1 µM) |  |  |
| CNc1cc(F)c(F)c2c1[nH]c1ncc(-c3cnc4c(c3)c(=O)c(C(=O)O)cn4NC)c(N3CCC4(F)CN(C)CC34)c12 (stereo not shown) [Example 1.121] | 0.215 | < 0.098 | < 0.098 | 58 (≈ 97.9 µM) |  |  |
| CCNc1cc(C(F)(F)F)cc2c1[nH]c1ncc(-c3cnc4c(c3)c(=O)c(C(=O)O)cn4NC)c(N3CC[C@H]4CN(C)CC43)c12 (stereo partly shown) [Example 1.123] | 0.696 | < 0.098 | < 0.098 | 48 (≈ 77.3 µM) |  |  |
| CNc1cc(F)c(F)c2c1[nH]c1ncc(-c3cnc4c(c3)c(=O)c(C(=O)O)cn4C)c(N3CCC4(CF)CN(C)CC34)c12 (stereo not shown) [Example 1.124] | 0.074 | < 0.098 | < 0.098 | 151 (≈ 255 µM) |  |  |
| CNc1cc(F)c(F)c2c1[nH]c1ncc(-c3cnc4c(c3)c(=O)c(C(=O)O)cn4NC)c(N3CCC4(CF)CN(C)CC34)c12 (stereo not shown) [Example 1.125] | 0.079 | < 0.098 | < 0.098 | 262 (≈ 432 µM) |  |  |
| CNc1cc(Cl)cc2c1[nH]c1ncc(-c3cnc4c(c3)c(=O)c(C(=O)O)cn4C)c(N3CCC(N(C)C)C3)c12 (stereo not shown) [Example 1.139] | 0.116 | < 0.098 | < 0.098 | 20 (≈ 36.6 µM) |  |  |
| CNc1cc(F)cc2c1[nH]c1ncc(-c3cnc4c(c3)c(=O)c(C(=O)O)cn4C)c(N3CCC(CN(C)CCOC)C3)c12 (stereo not shown) [Example 1.141] | 0.485 | < 0.098 | < 0.098 | 485 (≈ 825 µM) |  |  |
| CNc1cc(F)cc2c1[nH]c1ncc(-c3cnc4c(c3)c(=O)c(C(=O)O)cn4C)c(N3C[C@H](C)[C@@H](N(C)C)C3)c12 [Example 1.152] | 0.305 | < 0.098 | < 0.098 | 49 (≈ 90.1 µM) |  |  |

| SMILES | IC50 (A. baumannii (ATCC17978); [3]) [µM] | IC50 [1] [µM] | IC50 (S. aureus (ATCC29213)) [µM] | solubility thermodynamic [2] [µg/mL] | IC50 (A. baumannii (ATCC17978); A. baumannii ATCC17978) [µM] | Lysa ([2]; pH 6.5) [µg/mL] |
| --- | --- | --- | --- | --- | --- | --- |
| CNc1cc(F)cc2c1[nH]c1ncc(-c3cnc4c(c3)c(=O)c(C(=O)O)cn4NCC(F)(F)F)c(N3CCC[C@H]3CN(C)C)c12 [Example 1.153] | 0.388 | < 0.098 | 0.372 | 201 (≈ 321 µM) |  |  |
| CNc1cc(F)c(F)c2c1[nH]c1ncc(-c3cnc4c(c3)c(=O)c(C(=O)O)cn4C)c(N3CC4(CC4)C[C@H]3CN(C)C)c12 [Example 1.157] | 0.299 | < 0.098 | < 0.098 | 42 (≈ 71.5 µM) |  |  |
| CNc1cc(F)c(F)c2c1[nH]c1ncc(-c3cnc4c(c3)c(=O)c(C(=O)O)cn4C)c(N3C[C@H](C)[C@@H](N(C)C)C3)c12 [Example 1.160] | 0.131 | < 0.098 | < 0.098 | 43 (≈ 76.6 µM) |  |  |
| CNc1cc(F)c(F)c2c1[nH]c1ncc(-c3cnc4c(c3)c(=O)c(C(=O)O)cn4C)c(N3C[C@H](OC)[C@@H](N(C)C)C3)c12 [Example 1.170] |  | < 0.098 | < 0.098 |  | 0.292 | 119 |
| CNc1cc(F)cc2c1[nH]c1ncc(-c3cnc4c(c3)c(=O)c(C(=O)O)cn4C)c(N3C[C@H](OC)[C@@H](N(C)C)C3)c12 [Example 1.171] | 0.445 | < 0.098 | < 0.098 | 46 (≈ 82.2 µM) |  |  |
| CNc1cc(F)c(F)c2c1[nH]c1ncc(-c3cnc4c(c3)c(=O)c(C(=O)O)cn4C)c(N3C[C@H]4CCC[C@@H](N(C)C)[C@H]4C3)c12 [Example 1.175] | 0.277 | < 0.098 | < 0.098 | 113 (≈ 188 µM) |  |  |
| CNc1cc(F)c(F)c2c1[nH]c1ncc(-c3cnc4c(c3)c(=O)c(C(=O)O)cn4C)c(N3CCC(CN(C)C)CC3)c12 [Example 1.183] | 0.103 | < 0.098 | < 0.098 | 96 (≈ 167 µM) |  |  |
| CNc1cc(F)cc2c1[nH]c1ncc(-c3cnc4c(c3)c(=O)c(C(=O)O)cn4C)c(N3CC[C@H]4CN(C)CC43)c12 (stereo partly shown) [Example 1.187] | 0.096 | < 0.098 | < 0.098 | > 730 |  |  |
| CNc1cc(F)c(F)c2c1[nH]c1ncc(-c3cnc4c(c3)c(=O)c(C(=O)O)cn4C)c(N3CCC4(CCCN(C)C4)C3)c12 (stereo not shown) [Example 1.190] | 0.143 | < 0.098 | 12.2 | 62 (≈ 106 µM) |  |  |
| CNc1cc(F)c(F)c2c1[nH]c1ncc(-c3cnc4c(c3)c(=O)c(C(=O)O)cn4C)c(N3CCC4(CCCN(CCOC)C4)C3)c12 (stereo not shown) [Example 1.195] | 0.499 | < 0.098 | < 0.098 | 29 (≈ 45.9 µM) |  |  |
| CNc1cc(F)c(F)c2c1[nH]c1ncc(-c3cnc4c(c3)c(=O)c(C(=O)O)cn4C)c(N3CCCC(N(C)CCOC)C3)c12 (stereo not shown) [Example 1.197] | 0.245 | < 0.098 | < 0.098 | 407 (≈ 672 µM) |  |  |
| CNc1cc(F)c(F)c2c1[nH]c1ncc(-c3cnc4c(c3)c(=O)c(C(=O)O)cn4C)c(N3CCC(N(C)CCOC)C3)c12 (stereo not shown) [Example 1.198] | 0.215 | < 0.098 | < 0.098 | 56 (≈ 94.7 µM) |  |  |
| CNc1cc(F)c(F)c2c1[nH]c1ncc(-c3cnc4c(c3)c(=O)c(C(=O)O)cn4C)c(N3CCC(N(C)CCO)C3)c12 (stereo not shown) [Example 1.200] | 0.57 | < 0.098 | 0.1 | 69 (≈ 119 µM) |  |  |
| CNc1cc(F)c(F)c2c1[nH]c1ncc(-c3cnc4c(c3)c(=O)c(C(=O)O)cn4C)c(N3CCCC(N(C)CCO)C3)c12 (stereo not shown) [Example 1.201] | 0.852 | < 0.098 | 0.189 | 124 (≈ 210 µM) |  |  |
| CNc1cc(F)c(F)c2c1[nH]c1ncc(-c3cnc4c(c3)c(=O)c(C(=O)O)cn4C)c(N3CCC(N4CCCC4)CC3)c12 [Example 1.203] | 0.778 | < 0.098 | 0.208 | 303 (≈ 516 µM) |  |  |
| CNc1cc(F)c(F)c2c1[nH]c1ncc(-c3cnc4c(c3)c(=O)c(C(=O)O)cn4C)c(N3CCN4CCC[C@H]4C3)c12 [Example 1.219] | 0.267 |  |  | 73 (≈ 130 µM) |  |  |
| CNc1cc(F)c(F)c2c1[nH]c1ncc(-c3cnc4c(c3)c(=O)c(C(=O)O)cn4C)c(N3CCN4CCC[C@@H]4C3)c12 [Example 1.220] | 0.141 |  |  | 79 (≈ 141 µM) |  |  |
